US9346834B2, “Boron-containing small molecules as antiprotozoal agents” (Anacor Pharmaceuticals, Inc., priority 2009, dated 2016)

Test system: Leishmania infantum MHOM/MA(BE)/67
Assay: Leishmania infantum macrophage screening assay, primary screen
Type: cell-based
Conditions: 120 h, amastigotes in primary peritoneal mouse macrophages, 5 days incubation, % reduction in parasite burden, reference drugs, read-out: IC50 (50% inhibitory concentration)
Procedure: Parasite and Cell Cultures. Two Leishmania species (L. infantum MHOM/MA(BE)/67 and L. donovani MHOM/ET/67/L82) were used. The strains were maintained in the Golden Hamster (Mesocricetus auratus). Amastigotes were collected from the spleen of an infected donor hamster using three centrifugation purification steps (300 rpm, keeping the supernatant, 2200 rpm, keeping the supernatants and 3500 rpm, keeping the pellet) and spleen parasite burdens were assessed using the Stauber technique (Stauber L A., Exp Parasitol. 18: 1-11 (1966)). Primary peritoneal mouse macrophages were used as host cell and were collected 2 days after peritoneal stimulation with a 2% potato starch suspension. All cultures and assays were conducted at 37° C. under an atmosphere of 5% CO2.
Compound Solutions/Dilutions. Compound stock solutions were prepared in 100% DMSO at 20 mM or mg/ml. Concentrations were standard and expressed in molar concentrations, except for natural products, drug mixtures and if the molecular weight was not known. […]
Drug Sensitivity Assays. […] After 5 days incubation, parasite burdens (mean number of amastigotes/macrophage) were microscopically assessed after staining the cells with a 10% Giemsa solution. The results were expressed as % reduction in parasite burden compared to untreated control wells and an IC50 (50% inhibitory concentration) was calculated. […]

IC50: 4.3 µM
SMILES: CCCCCCCCCCCCCCCCOP(=O)([O-])OCC[N+](C)(C)C [miltefosin]
